Reference: patent publication US20240065261A1, “PENETRATING CRYOPROTECTION AGENTS AND METHODS OF MAKING AND USING SAME” (The Research Foundation for The State University of New York, priority 2020, published 2024)
Where “and” joins values, the source holds several entries; their conditions need not be identical. Equal values may be shown once.

Experiments:
NIH-3T3 cells [1] = experiment: Post-thaw viability of cryopreserved NIH-3T3 cells (CCK-8), Example 1; format: cell-based; conditions: for Post-thaw viability, 24 hours post thaw / Post-thaw viability, 48 hours post-thaw: Table 1
Protocol: Cryopreservation protocol. […] Discarded 95% of the old media and added 0.5 mL new DMEM (pH=7.4) with 10% FBS and 400 mM trehalose (filtered with 0.22 μm filter) and re-suspended the cells. • Transferred the cell culture to cryo-tube and stored the tubes at −80° C. for 3 days. • Thawed the cells at 37° C. in a water bath until ice melted. • Counted the cell density in each cryo-tube with cell counter. • Re-cultured the cells in 96-well plate with fresh DMEM (PH=7.4) with 10% FBS. (while keeping cell density the approximately the same for each well). • Used CCK-8 kit to test the post-thaw viability after certain time.

NIH-3T3 cells [2] = experiment: Post-thaw total cell recovery of cryopreserved cells (trypan blue exclusion); format: cell-based; conditions: ±SEM
Protocol: The delivery of sugar alcohols into cells makes it possible to turn these molecules into intracellular CPAs. […] Total post-thaw cell recovery, defined as the ratio (%) of post-thaw live cells to the number of initially frozen live cells, which provides a more accurate measure of cryoprotective outcome than cell viability, was used to assess the cryoprotective effects of the diesters.
Systematic studies were then performed by incubating the cells (1) with each of diesters 1-4 (10 mM), (2) with unmodified sorbitol, mannitol, xylitol, or erythritol (10 mM), and (3) in medium without any of the diesters or sugar alcohols, at 37° C. for 48 h. The cells treated with diesters 1-4 and the four sugar alcohols were then transferred to freezing media consisting of DMEM, 10% FBS and 400 mM trehalose. The cells incubated with only the medium were divided into two portions, one being directly transferred to the freezing medium containing 400 mM trehalose (control 1) and the other being placed in a different freezing medium consisting of DMEM, 10% FBS and 5% DMSO but without trehalose (control 2). After being frozen at −80° C. for 72 h, the cells were thawed in a warm water bath at 37° C. until ice melted. The post-thaw cells were either immediately analyzed for their survival or were cultured in growth media (DMEM with 10% FBS) for 24 h and 48 h before being analyzed.
Incubation (for cryopreservation). NIH/3T3 cells were seeded into cell culture treated plates (100 mm) at a density of 2×10^4 cells/mL (10 mL/plate), allowed to adhere overnight and then incubated with different sample solutions (10 mL) for 48 hours at 37° C. under 5% CO2. Control cells were incubated with growth medium.
Cryopreservation. At the end of the incubation, the cells were rinsed with PBS (2 mL) and detached using 0.25% trypsin-EDTA (3 mL). The cells were pelleted (200×g, 5 min) and resuspended in growth medium with 400 mM trehalose except for the control-2 group. For control-2 group, cells were resuspended in growth medium with 5% DMSO (v/v). An aliquot of cells of each group was then removed for counting by a DeNovix Celldrop cell counter to obtain prefreeze number of viable cells. The remaining cell suspension was transferred into a 2 mL cryogenic vial. The vials were directly transferred to −80° C. freezer without controlling cooling rate and stored at −80° C. freezer for 3 days. To thaw, cryogenic vials were removed from −80° C. freezer and suspended in a 37° C. water bath until ice melt. To the contents of each vial 1 mL growth medium was added and centrifuged (200×g , 5 min). The supernatant was discarded and cell pellet was resuspended in 1 mL growth cell medium. An aliquot of cell suspension of each group was then removed for counting with a DeNovix Celldrop cell counter to obtain the number of viable cells at 0-hr post-thaw. The remaining cell suspension was split equally and resuspended into two cell culture treated plates (100 mm) with 10 mL growth medium in each plate. The plates were then maintained for either 24 hours or 48 hours at 37° C. under 5% CO2. After being cultured for either 24 hours or 48 hours, the cells were rinsed with PBS (2 mL) and detached using 0.25% trypsin-EDTA (3 mL). The cells were pelleted (200×g, 5 min) and resuspended in growth medium. The cell suspension was then analyzed by DeNovix Celldrop cell counter to obtain number of viable cells at either 24-hr or 48-hr post-thaw.
Trypan Blue Exclusion Assay. For all time points, a sample of cells was mixed 1:1 in 0.4% trypan blue and counted using a DeNovix Celldrop. Cell recovery was calculated as the ratio of viable cells to the number of cells initially frozen.

3T3 cells = experiment: Cryopreservation, post-thaw recovery rate, Example 3; format: cell-based; conditions: incubated with medium only; frozen −80° C. in medium with 5% DMSO
Protocol: Cryopreservation: The cryopreservation effects of EGL-3Pro and EGL-3Phe were tested on 3T3 cells. The cells were incubated with 5 mM or 10 mM EGL-3Pro or 0.5 mM EGL-3Phe or medium only (two control groups) for 72 hours. After incubation, the cells were detached by treating […] pelleted by centrifuging (200×g). The cells were then resuspended in medium with 400 mM trehalose or 5% DMSO (for control 2 group) in cryovials and a small portion of cell suspension were used for counting pre-freeze cell number. The vials were directly put in −80° C. freezer and stored for at least 3 days. The cells were thawed in 37° C. water bath until ice melt, and resuspended in 10 mL fresh medium and pelleted by centrifuging (200×g). The cells were then resuspended in 1 mL fresh medium and counted by cell counter. The recovery rate was obtained by dividing post-thaw lived cell number by pre-freeze lived cell number.

NIH-3T3 cells [3] = experiment: Live/dead fluorescence microscopy of post-thaw cells (calcein-AM / ethidium homodimer-1); format: cell-based; conditions: 24 h post-thaw; incubated with 10 mM for 48 h, frozen in media with 400 mM trehalose (FIG. 14)
Protocol: DIC and Fluorescence images capturing. NIH/3T3 cells were treated as the same as for cryopreservation experiment and were thawed in a 37° C. water bath until ice melt. Cells in each vial were then pelleted (200×g, 5 min), re-suspended in 1 mL fresh growth medium and plated into 96 well plate and grown for 24 hours. Each well was washed with sterile PBS (100 μL). Sterile PBS (200 μL) containing 2 μM calcein-AM and 4 μM ethidium homodimer-1 (EthD-1) was then added to each well. The 96-well plate was then incubated in a CO2 incubator at 37° C. for 30 min. Fresh cells without freezing were plated at similar density in 96-well plate as comparison. DIC and fluorescence microscopy images were captured at 509 and 580 nm on Axioplan 2 fluorescent microscope (Zeiss [Carl Zeiss], Thornwood, NY) with an Axiocam MRm camera (Zeiss). Axiovision 4 software (Zeiss) was used for image acquisition. Digital images were processed with ImageJ (imagej.nih.gov/ij/).

NIH-3T3 cells [4] = experiment: Cytotoxicity, CCK-8 cell viability after 48 h incubation
Protocol: Cytotoxicity assays were performed by exposing NIH-3T3 cells to the diesters. Cell viability was determined by using Cell Counting Kit-8 (CCK-8) reagent and a BioTek microplate reader to count the numbers of live and dead cells.
NIH/3T3 cells were seeded into 96-well plates (Fisher brand) at a density of 8,000 cells in 150 μL growth medium per well. The cells were incubated for 24 hours at 37° C. with 5% CO2. After 24 hours all medium was aspired one row at a time and treated with various concentrations of each compound (10 mM, 5 mM, 1 mM, 0.5 mM and 0.1 mM) or carboxylic acid/NaOH (10 mM/5 mM, 5 mM/2.5 mM). The control cells were treated with fresh medium only. The cells were then incubated again for 48 hours at 37° C. with 5% CO2. After incubation, all medium was aspired and replaced with fresh medium and 10% (v/v) CCK-8 reagent and returned to incubate at 37° C. with 5% CO2 for 2 hours. Cell viability was then calculated from the OD value read by a plate reader (Biotek Synergy H1) at wavelength of 450 nm.

[5] = incubated with 10% DMSO, reference set as 100%
[6] = Table 2, incubated with 10% DMSO, reference set as 100%
[7] = Table 3, incubated with 10% DMSO, reference set as 100%
[8] = incubated with media only, frozen in media containing 5% DMSO without trehalose
[9] = incubated with 10 mM for 48 h, frozen −80° C. 72 h in media with 400 mM trehalose
[10] = incubated at 5 mM without DMSO, frozen −80° C. 72 hours, freezing media with 400 mM trehalose, 10% DMSO set as 100%
[11] = incubated at 10 mM without DMSO, frozen −80° C. 72 hours, freezing media with 400 mM trehalose, 10% DMSO set as 100%
[12] = Table 2, incubated 36 hours at 5 mM without DMSO, frozen −80° C. 72 hours, 400 mM trehalose, 10% DMSO set as 100%
[13] = Table 2, incubated 36 hours at 10 mM without DMSO, frozen −80° C. 72 hours, 400 mM trehalose, 10% DMSO set as 100%
[14] = Table 3, incubated 36 hours at 5 mM without DMSO, frozen −80° C. 72 hours, 400 mM trehalose, 10% DMSO set as 100%
[15] = Table 3, incubated 36 hours at 10 mM without DMSO, frozen −80° C. 72 hours, 400 mM trehalose, 10% DMSO set as 100%

C[S+](C)[O-] [DMSO, dimethyl sulfoxide, reference compound]
Post-thaw viability, 24 hours post thaw (NIH-3T3 cells [1]; [5]): 100.0 ± 11.8% | Post-thaw viability, 48 hours post-thaw (NIH-3T3 cells [1]; [5]): 100.0 ± 4.0% | Post-thaw viability (%), 24 hours post thaw (NIH-3T3 cells [1]; [6]): 100.0 ± 3.6% | Post-thaw viability (%), 48 hours post-thaw (NIH-3T3 cells [1]; [6]): 100.0 ± 13.4% | Post-thaw viability (%), 24 hours post thaw (NIH-3T3 cells [1]; [7]): 100.0 ± 13.5% | Post-thaw viability (%), 48 hours post-thaw (NIH-3T3 cells [1]; [7]): 100.0 ± 5.3% | Post-thaw recovery (%) 0-hr (NIH-3T3 cells [2]; [8]): 84.5 ± 3.8% | Post-thaw recovery (%) 24-hr (NIH-3T3 cells [2]; [8]): 93.9 ± 2.4% | Post-thaw recovery (%) 48-hr (NIH-3T3 cells [2]; [8]): 196.4 ± 5.7% | 0-hour post thaw recovery (%) (3T3 cells): 77.9 ± 3.8%

CCC(=O)OC[C@@H](O)[C@@H](O)COC(=O)CC [EryPr2]
Post-thaw recovery (%) 0-hr (NIH-3T3 cells [2]; [9]): 48% and 47.9 ± 3.4% | Post-thaw recovery (%) 24-hr (NIH-3T3 cells [2]; [9]): 42.6 ± 2.6% | Post-thaw recovery (%) 48-hr (NIH-3T3 cells [2]; [9]): 72% and 71.6 ± 3.9%

OC[C@@H](O)[C@@H](O)CO [Erythritol, erythritol, reference compound]
Post-thaw recovery (%) 0-hr (NIH-3T3 cells [2]; [9]): 33.5 ± 2.7% | Post-thaw recovery (%) 24-hr (NIH-3T3 cells [2]; [9]): 26.0 ± 0.6% | Post-thaw recovery (%) 48-hr (NIH-3T3 cells [2]; [9]): 42.3 ± 1.2%

O=C(OCC(COC(=O)[C@@H]1CCCN1)OC(=O)[C@@H]1CCCN1)[C@@H]1CCCN1 [GLC3P]
Post-thaw viability, 24 hours post thaw (NIH-3T3 cells [1]; [10]): 130.9 ± 5.3% | Post-thaw viability, 48 hours post-thaw (NIH-3T3 cells [1]; [10]): 143.8 ± 4.2% | Post-thaw viability, 24 hours post thaw (NIH-3T3 cells [1]; [11]): 174.7 ± 6.9% | Post-thaw viability, 48 hours post-thaw (NIH-3T3 cells [1]; [11]): 220.4 ± 5.5%

OC[C@@H](O)[C@@H](O)[C@H](O)[C@H](O)CO [Mannitol, mannitol, reference compound]
Post-thaw recovery (%) 0-hr (NIH-3T3 cells [2]; [9]): 24.1 ± 1.8% | Post-thaw recovery (%) 24-hr (NIH-3T3 cells [2]; [9]): 20.8 ± 1.5% | Post-thaw recovery (%) 48-hr (NIH-3T3 cells [2]; [9]): 41.5 ± 3.0% | Post-thaw viability/recovery in fluorescence microscopy images (NIH-3T3 cells [3]): does not result in higher post-thaw viability than cells treated with media only

O=C(OC[C@H](OC(=O)[C@@H]1CCCN1)[C@@H](OC(=O)[C@@H]1CCCN1)[C@H](OC(=O)[C@@H]1CCCN1)[C@@H](COC(=O)[C@@H]1CCCN1)OC(=O)[C@@H]1CCCN1)[C@@H]1CCCN1 [SBT6P]
Post-thaw viability (%), 24 hours post thaw (NIH-3T3 cells [1]; [12]): 33.3 ± 1.4% | Post-thaw viability (%), 48 hours post-thaw (NIH-3T3 cells [1]; [12]): 66.2 ± 2.0% | Post-thaw viability (%), 24 hours post thaw (NIH-3T3 cells [1]; [13]): 34.0 ± 3.5% | Post-thaw viability (%), 48 hours post-thaw (NIH-3T3 cells [1]; [13]): 69.6 ± 6.5%

CCCC(=O)OC[C@@H](O)[C@@H](O)[C@H](O)[C@@H](O)COC(=O)CCC [SorbBa2]
Post-thaw viability (%), 24 hours post thaw (NIH-3T3 cells [1]; [14]): 113.4 ± 9.5% | Post-thaw viability (%), 48 hours post-thaw (NIH-3T3 cells [1]; [14]): 143.3 ± 7.4% | Post-thaw viability (%), 24 hours post thaw (NIH-3T3 cells [1]; [15]): 150.4 ± 1.5% | Post-thaw viability (%), 48 hours post-thaw (NIH-3T3 cells [1]; [15]): 211.8 ± 2.2%

OC[C@@H](O)[C@@H](O)[C@H](O)[C@@H](O)CO [Sorbitol, sorbitol, reference compound]
Post-thaw recovery (%) 0-hr (NIH-3T3 cells [2]; [9]): 32.8 ± 3.2% | Post-thaw recovery (%) 24-hr (NIH-3T3 cells [2]; [9]): 28.4 ± 2.1% | Post-thaw recovery (%) 48-hr (NIH-3T3 cells [2]; [9]): 50.8 ± 3.5% | Post-thaw viability/recovery in fluorescence microscopy images (NIH-3T3 cells [3]): does not result in higher post-thaw viability than cells treated with media only

CCC(=O)OC[C@@H](O)[C@H](O)[C@@H](O)COC(=O)CC [XylPr2]
Post-thaw recovery (%) 0-hr (NIH-3T3 cells [2]; [9]): 52.1 ± 4.8% | Post-thaw recovery (%) 24-hr (NIH-3T3 cells [2]; [9]): 49.7 ± 1.1% | Post-thaw recovery (%) 48-hr (NIH-3T3 cells [2]; [9]): 90.0 ± 4.3%

OC[C@@H](O)[C@H](O)[C@@H](O)CO [Xylitol, xylitol, reference compound]
Post-thaw recovery (%) 0-hr (NIH-3T3 cells [2]; [9]): 24.6 ± 2.4% | Post-thaw recovery (%) 24-hr (NIH-3T3 cells [2]; [9]): 22.1 ± 2.1% | Post-thaw recovery (%) 48-hr (NIH-3T3 cells [2]; [9]): 44.3 ± 4.7%

CCCC(=O)O [butyric acid]
Cell viability relative to control groups (NIH-3T3 cells [4]; at 5 mM): ~50% | Cell viability relative to control groups (NIH-3T3 cells [4]; at 10 mM): ~40%

CCC(=O)O [propionic acid]
Cell viability relative to control groups (NIH-3T3 cells [4]; up to 10 mM): ~70%
